Broadly, the IC50 is the midpoint of a concentration-inhibition curve.

This is an account of results in patent US9464084B2, “P2X7 modulators” (Janssen Pharmaceutica NV, priority 2013, dated 2016).

SMILES strings stand for the structures. A value given as a limit tells only on which side of the number the result lay.

What all share (assay type): cell-based
Test [1] concerns the target T1, P2X7 (Homo sapiens (Human), UniProt Q99572). The test is described as follows: P2X7 antagonism in human PBMCs (LPS + Bz-ATP induced IL-1β release, ELISA).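 For all read-outs here: PBMCs from donor human blood, with a further 1.5 h incubation of the cells in the assay.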 The note with it: LPS 30 ng/ml, Bz-ATP 0.5 mM; for PBMC 10 μM (% control): compound 10 μM; for PBMC 1 μM (% control): compound 1 μM. Background: ELISA stands for enzyme-linked immunosorbent assay.
Procedure: Human blood was collected using a blood donor program. PBMCs were isolated from blood using a Ficoll density gradient technique. Briefly, blood was laid on Ficoll solution and centrifuged at RT for 20 minutes at 2000 rpm. The buffy layer (between red blood cells and plasma) was carefully collected by aspiration, washed with PBS and centrifuged again at 1500 rpm for 15 minutes. The resulting cell pellet was washed and plated on 96 well-plates for experiments. For the Mouse/Human Whole Blood experiments, 150 μl of either mouse or human blood was platted on 96 well-plates. Lipopolysaccharide (LPS) (30 ng/ml) was added to each well and incubated for 1 hour. Test compounds were then added and incubated for 30 minutes. The P2X7 agonist, 2′(3′)-O-(4-benzoylbenzoyl) adenosine 5′ triphosphate (Bz-ATP) was then added at a final concentration of 0.5 mM (PBMC) or 1 mM (blood). Cells were incubated for an additional 1.5 hours. At that point, supernatant was collected and stored for IL-1β assay using manufacturer's protocol for enzyme-linked immunosorbent assay (ELISA). Data was expressed as percent control, where control is defined as the difference in IL-1β release in LPS+Bz-ATP samples and LPS only samples. Data was plotted as response (% control) versus concentration to generate IC50 values.
Test [2] concerns the target T1, P2X7. The test is described as follows: Ca2+ flux (FLIPR) in 1321N1 cells expressing recombinant human P2X7 channel.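 Note: Calcium-4 dye-loaded cells exposed to compound for 30 min before agonist addition, fluorescence change read 180 s after agonist.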 The note with it: 250 μM BzATP.
The next test has as its target rat P2X7 (Rattus norvegicus (Rat), UniProt Q64663). The test is described as follows: Ca2+ flux (FLIPR) in 1321N1 cells expressing recombinant rat P2X7 channel.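 Note: Calcium-4 dye fluorescence change read 180 s after agonist addition, following 30 min cell preincubation with test compound.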 The note with it: 250 μM BzATP. For orientation: Calcium assays in cells follow changes in intracellular calcium, usually with a dye or a luminescent sensor.

T1 sequence (Q99572 whole entry): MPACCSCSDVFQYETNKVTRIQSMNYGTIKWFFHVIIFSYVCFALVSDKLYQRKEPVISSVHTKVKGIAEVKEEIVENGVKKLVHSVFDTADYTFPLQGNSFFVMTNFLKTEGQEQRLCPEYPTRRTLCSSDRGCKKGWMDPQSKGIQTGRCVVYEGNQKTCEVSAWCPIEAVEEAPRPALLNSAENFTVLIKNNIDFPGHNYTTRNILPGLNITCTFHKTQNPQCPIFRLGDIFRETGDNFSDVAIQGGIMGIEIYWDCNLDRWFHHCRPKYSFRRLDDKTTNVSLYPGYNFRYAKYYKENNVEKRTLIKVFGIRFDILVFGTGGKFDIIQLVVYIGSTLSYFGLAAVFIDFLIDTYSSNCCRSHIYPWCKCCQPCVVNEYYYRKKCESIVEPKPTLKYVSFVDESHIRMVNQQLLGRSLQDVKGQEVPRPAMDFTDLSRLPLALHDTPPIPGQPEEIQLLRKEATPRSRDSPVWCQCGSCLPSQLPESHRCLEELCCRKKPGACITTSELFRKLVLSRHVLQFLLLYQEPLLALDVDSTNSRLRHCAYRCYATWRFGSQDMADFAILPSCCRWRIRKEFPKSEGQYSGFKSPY
Sequence of rat P2X7 (Q64663 whole entry): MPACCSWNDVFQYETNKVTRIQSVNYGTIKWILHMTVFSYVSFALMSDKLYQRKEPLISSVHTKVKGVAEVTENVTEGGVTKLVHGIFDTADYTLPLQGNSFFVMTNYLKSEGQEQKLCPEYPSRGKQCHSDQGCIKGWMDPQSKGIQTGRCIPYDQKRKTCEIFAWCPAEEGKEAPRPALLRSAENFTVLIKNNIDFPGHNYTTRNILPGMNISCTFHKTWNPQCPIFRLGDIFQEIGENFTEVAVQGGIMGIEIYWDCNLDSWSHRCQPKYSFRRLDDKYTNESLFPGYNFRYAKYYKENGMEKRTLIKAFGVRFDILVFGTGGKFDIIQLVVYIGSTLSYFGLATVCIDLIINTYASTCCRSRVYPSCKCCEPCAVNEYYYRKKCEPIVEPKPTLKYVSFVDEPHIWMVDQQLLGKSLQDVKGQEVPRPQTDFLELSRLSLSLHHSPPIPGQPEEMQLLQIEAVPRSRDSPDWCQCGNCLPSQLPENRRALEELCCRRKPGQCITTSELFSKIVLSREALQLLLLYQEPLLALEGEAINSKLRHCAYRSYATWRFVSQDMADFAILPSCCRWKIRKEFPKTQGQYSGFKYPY
Procedure for rat P2X7: Cells were seeded at a density of 25000 cells/well (96-well clear bottom black walled plates) in 100 μl volume/well. On the day of the experiment, cell plates were washed with assay buffer, containing (in mM): 130 NaCl, 2 KCl, 1 CaCl2, 1 MgCl2, 10 HEPES, 5 glucose; pH 7.40 and 300 mOs. After the wash, cells were loaded with the Calcium-4 dye (Molecular Device) and incubated in the dark for 60 minutes. Test compounds were prepared at 250× the test concentration in neat DMSO. Intermediate 96-well compound plates were prepared by transferring 1.2 μL of the compound into 300 μL of assay buffer. A further 3× dilution occurred when transferring 50 μL/well of the compound plate to 100 μL/well in the cell plate. Cells were incubated with test compounds and dye for 30 minutes. […] The fluorescence change was measured 180 seconds after adding the agonist.

As to `CC1c2nnn(-c3ccc(F)cn3)c2CCN1C(=O)c1cccc(C(F)(F)F)c1Cl` (stereo not drawn) [Example 71, 5-{[2-Chloro-3-(trifluoromethyl)phenyl]carbonyl}-1-(5-fluoropyridin-2-yl)-4-methyl-4,5,6,7-tetrahydro-1H-[1,2,3]triazolo[4,5-c]pyridine], the “PBMC 10 μM (% control)” value at P2X7 [1] was 11.1 % control. Also, the half-maximal inhibitory concentration (IC50) stood at 49 nM on P2X7 [2] and 397 nM on rat P2X7.
On to `Cc1c(C(=O)N2Cc3nnn(-c4cc[nH]n4)c3CC2C)cccc1C(F)(F)F` (stereo not drawn) [Example 154, (6-methyl-1-(1H-pyrazol-3-yl)-6,7-dihydro-1H-[1,2,3]triazolo[4,5-c]pyridin-5(4H)-yl)(2-methyl-3-(trifluoromethyl)phenyl)methanone], for which, on P2X7 [1], the “PBMC 10 μM (% control)” value is listed as −0.6 % control. Besides, the half-maximal inhibitory concentration (IC50) is 16.5 nM at P2X7 [2] and 10.2 nM on rat P2X7.
As for `O=C(c1ccc(F)cc1Cl)N1CCc2c(nnn2-c2ccccn2)C1` [Example 117, (2-Chloro-4-fluorophenyl)(1-(pyridin-2-yl)-6,7-dihydro-1H-[1,2,3]triazolo[4,5-c]pyridin-5(4H)-yl)methanone], on P2X7 [1], the “PBMC 10 μM (% control)” value was 4.3 % control. In addition, the IC50 on P2X7 [2] is 2220 nM; on rat P2X7, over 10000 nM.
On the same counts, the results for `O=C(c1ccc(Cl)cc1F)N1CCc2c(nnn2-c2ccccn2)C1` [Example 129, (4-Chloro-2-fluorophenyl)(1-(pyridin-2-yl)-6,7-dihydro-1H-[1,2,3]triazolo[4,5-c]pyridin-5(4H)-yl)methanone] are 8.4 % control, 366 nM and 3350 nM.
As for `O=C(OCC1c2ncn(-c3ccccc3)c2CCN1C(=O)c1cccc(C(F)(F)F)c1Cl)c1cccc(C(F)(F)F)c1Cl` (stereo not drawn) [Example 36, (5-{[2-Chloro-3-(trifluoromethyl)phenyl]carbonyl}-1-phenyl-4,5,6,7-tetrahydro-1H-imidazo[4,5-c]pyridin-4-yl)methyl 2-chloro-3-(trifluoromethyl)benzoate], the “PBMC 1 μM (% control)” value on P2X7 [1] was 16.6 % control. Also, the IC50 on P2X7 [2] worked out at 3080 nM.
For `C[C@@H]1c2nnn(-c3ccccn3)c2CCN1C(=O)c1ccc(F)c(Cl)c1Cl` (single isomer, unassigned) [Example 141, (R*)-(2,3-Dichloro-4-fluorophenyl)(4-methyl-1-(pyridin-2-yl)-6,7-dihydro-1H-[1,2,3]triazolo[4,5-c]pyridin-5(4H)-yl)methanone], on P2X7 [1], the “PBMC 10 μM (% control)” value was found to be 40.5 % control. For the same compound, the concentration for half-maximal inhibition (IC50) at P2X7 [2] stood at 9590 nM.
In the case of `Cn1nc(-c2ccc(F)cc2)c2c1CN(C(=O)c1cccc(Cl)c1Cl)CC2` [Example 109, 6-[(2,3-Dichlorophenyl)carbonyl]-3-(4-fluorophenyl)-1-methyl-4,5,6,7-tetrahydro-1H-pyrazolo[3,4-c]pyridine], the “PBMC 1 μM (% control)” value on P2X7 [1] turned out to be 94.1 % control. Further, the half-inhibitory concentration (IC50) on P2X7 [2] worked out at 251 nM.
Regarding `CC1CN(C(=O)c2cccc(Cl)c2Cl)Cc2nnn(-c3ccccc3)c21` (stereo not drawn) [Example 244, (2,3-Dichlorophenyl)(7-methyl-1-phenyl-6,7-dihydro-1H-[1,2,3]triazolo[4,5-c]pyridin-5(4H)-yl)methanone], the “PBMC 10 μM (% control)” value at P2X7 [1] is −2.3 % control. Also, the IC50 on P2X7 [2] was 1140 nM.
On the same counts, the results for `O=C(c1ccc(Cl)cc1Cl)N1CCc2c(ncn2-c2ccc(F)cn2)C1` [Example 313, (2,4-dichlorophenyl)(1-(5-fluoropyridin-2-yl)-6,7-dihydro-1H-imidazo[4,5-c]pyridin-5(4H)-yl)methanone] are −5.4 % control and 1110 nM.
On the same counts, the results for `CC1CN(C(=O)c2cccc(Cl)c2Cl)Cc2nnn(-c3ccc(F)cc3)c21` (stereo not drawn) [Example 247, (2,3-Dichlorophenyl)(1-(4-fluorophenyl)-7-methyl-6,7-dihydro-1H-[1,2,3]triazolo[4,5-c]pyridin-5(4H)-yl)methanone] are −0.8 % control and 2330 nM.
